Values joined by “and” are separate entries in the source; they are usually repeats but may differ in a detail not shown here. Equal entries are not always repeated.
Columns and labels:
Assay type in all cases: biochemical
[1] = Suture testing in aqueous suspension of CaSt
Experimental: Treatment of sutures in aqueous suspensions of CaSt was performed as follows: Suture used was VICRYL® (Polyglactin 910) suture made of a copolymer made from 90% glycolide and 10% L-lactide, Size 1, 27 inch pieces. Endotoxin sources used were sitting (or stagnant) Rain Water (SRW) and diluted with LRW to obtain a concentration of (3980 EU/mL). Endosafe LAL Reagent Water (LRW) was used, manufactured by Charles River Laboratories, Charleston S.C.
Eight strands of suture were placed in tubing with LPS (endotoxin) solution for 10 minutes at a time. The sutures were dried for 20 minutes and then placed in round bottom tubes. Suspensions of 5% by weight CaSt in LAL Reagent Water were prepared. (0.5 g CaSt in 10 mL LRW). One suture was placed in each tube and vortexed in this solution for approximately 10 seconds. The sutures were removed and allowed to dry for 20 minutes and then placed in round bottom tubes. This was done for 3 sutures. Three pieces of suture, serving as the control, were not submerged in any solutions and placed in test tubes. 3 mL of LAL reagent water was added to each test tube, vortexed vigorously for 1 minute, and then placed in a hot water bath at 37° C. for 1 hour. They were then removed, vortexed vigorously for 1 minute, diluted, and tested on the MCS system. The water that was mixed with the calcium stearate was also tested. Two sutures were submerged in LRW that was mixed with calcium stearate. The LRW was separated from the calcium stearate before two sutures were submerged. These were also tested for endotoxin on the MCS.

[2] = Efficacy of sonicated CaSt suspension stored 1 month
Experimental: 10 ml of LRW water (LAL reagent water, contains no endotoxin) containing 0.04 g of CaSt suspension was sonicated using Misonix Probe Sonicator, Model: S-4000, Amplitude: 30, Time: 30 seconds and then the suspension was stored for 1 month at ambient temperature. Then 1 ml of the above suspension was added to 10 ml endotoxin containing water SRW and the resulting endotoxin concentrations in the combined solution measured after 15 min and 30 min, with the results presented in Table 14.

[3] = Testing of various sources of LPS with CaSt in water
Experimental: Therefore, for the methods described above, the activity of endotoxin was tested with various sources of endotoxin. Laboratory grown endotoxin is purified while natural endotoxin will be present with other substances such as proteins and phospholipids.
The laboratory grown endotoxin used in this experiment was supplied by Charles River Laboratories.
Natural airborne endotoxin was captured using an electret filter. Electret filters are produced from dielectric polymer fibers that develop an electrical charge when air flows past them, capturing the endotoxin along with other particles. The endotoxin was extracted from the filter by placing the filter in endotoxin free water for an extended period of time.
Two other natural sources of endotoxin were obtained from water samples in the surrounding environment. One source was a pool of sitting rain water and other being a small puddle on the side of the Raritan River. The sitting rain water (SRW) was purified via chlorination and 0.2 μm filter. The Raritan River Water (RRW) was not altered in anyway. The same testing procedure was conducted for all sources of endotoxin.

[4] = Wound dressing (fibrin pad) testing in cyclohexane containing CaSt; conditions: dressing spiked with 8.9 EU, 15 minutes in 10 mL cyclohexane with 0.1 g CaSt
Experimental: A wound dressing containing dry fibrinogen and dry thrombin on an absorbable support was tested as follows. The pad was spiked with LPS and then exposed to cyclohexane containing CaSt to determine the effect on detectable LPS.
Three 1×2 inch pieces of the dressing were spiked with endotoxin resulting in 8.9 EU of LPS. The pieces were allowed to dry for 20 minutes, then placed into 50 mL polypropylene conical tubes. 7.5 mL of LAL reagent water+2.5 mL 0.25M tris buffer was added to Tube 1. 10 mL of cyclohexane with 0.1 g of CaSt was added to Tube 2. 10 mL of cyclohexane was added to Tube 3. The tubes were closed and then placed on the bottle roller rotator machine for 15 minutes so that the tube could continuously roll and the dressing was constantly in contact with liquid.
Tube 1 solution was then diluted and tested for endotoxin on the MCS system. The fibrin pad pieces from Tube 2 and Tube 3 were removed and placed in new tubes and extracted in 7.5 mL of LAL reagent water+2.5 mL 0.25M tris buffer. The solutions were then tested on the MCS system for endotoxin (LPS).

[5] = Kinetics of removal of LPS with different agitation techniques and stearate salts; conditions: for Endotoxin Detected: 5 mL SRW, baseline 1,502 EU; for Percent (%) Removed: SRW baseline 1,502 EU
Experimental: 5 mL of SRW was added to each of the tubes. Each solution was tested for endotoxin removal after agitation based on with sonication, vortexing, or test tube rolling. Sonication samples were sonicated at each indicated time interval for 30 seconds at a magnitude of 30. Vortex samples were vortexed at each indicated time interval for 30 seconds at 2500 RPM. Rolling samples were constantly rolling at 10 rpm. The samples were tested on the MCS for endotoxin at 1 minute, 20 minutes, 40 minutes, 60 minutes, and 80 minutes.

[6] = Charles River Standard, 8330 EU spiked, 0.05 g Calcium Stearate
[7] = Charles River Standard, 8330 EU spiked, 0.15 g Calcium Stearate
[8] = Charles River Standard, 8330 EU spiked, 0.25 g Calcium Stearate
[9] = Dust Filter Extraction Water, 9280 EU spiked, 0.01 g Calcium Stearate
[10] = Dust Filter Extraction Water, 9280 EU spiked, 0.25 g Calcium Stearate
[11] = RRW endotoxin, 4340 EU spiked, 0.01 g Calcium Stearate
[12] = RRW endotoxin, 4340 EU spiked, 0.1 g Calcium Stearate
[13] = RRW endotoxin, 4340 EU spiked, 0.25 g Calcium Stearate
[14] = SRW endotoxin, 11100 EU spiked, 0.01 g Calcium Stearate

Calcium Stearate
Endotoxin Detected ([1]; Water with 5% Calcium Stearate, solution tested after suture removal): <1.0 EU | Average Change in Endotoxin Level ([1]; sutures 4-6 in LAL Water w/5% Calcium Stearate vs. sutures not submerged): −96.1% | Average Endotoxin Detected ([1]; sutures 4-6 in LAL Water w/5% Calcium Stearate, untreated average 84 EU): 3.27 EU | Endotoxin EU/mL (15 min after addition of CaSt suspension) ([2]; 0.04 g CaSt in 10 ml LRW sonicated, stored 1 month, initial endotoxin 732.5 EU/mL, 15 min): 372 EU/mL and 362 EU/mL | Endotoxin EU/mL (30 min after addition of CaSt suspension) ([2]; 0.04 g CaSt in 10 ml LRW sonicated, stored 1 month, initial endotoxin 732.5 EU/mL, 30 min): 384 EU/mL and 278 EU/mL | Percent Endotoxin Removal (15 min) ([2]; sonicated CaSt suspension stored 1 month, 15 min): 49.2% and 50.6% | Percent Endotoxin Removal (30 min) ([2]; sonicated CaSt suspension stored 1 month, 30 min): 47.6% and 62.0% | percent of endotoxin recovered ([3]; 0.1 grams of calcium stearate and higher, all sources of endotoxin): under 5% | Percent of Endotoxin Detected ([3]; Charles River Standard, 8330 EU spiked, 0.007 g Calcium Stearate): 48.0% | Percent of Endotoxin Detected ([3]; Charles River Standard, 8330 EU spiked, 0.018 g Calcium Stearate): 17.9% | Percent of Endotoxin Detected ([3]; Charles River Standard, 8330 EU spiked, 0.028 g Calcium Stearate): 2.8% | Endotoxin Detected [3, 6]: 190.5 EU | Percent of Endotoxin Detected [3, 6]: 2.3% | Endotoxin Detected [3, 7]: 86.5 EU | Percent of Endotoxin Detected [3, 7]: 1.0% | Endotoxin Detected [3, 8]: 38.5 EU | Percent of Endotoxin Detected [3, 8]: 0.5% | Endotoxin Detected [3, 9]: 3440 EU | Percent of Endotoxin Detected [3, 9]: 37.1% | Endotoxin Detected [3, 10]: 28.5 EU | Percent of Endotoxin Detected [3, 10]: 0.3% | Endotoxin Detected [3, 11]: 960 EU | Percent of Endotoxin Detected [3, 11]: 22.1% | Endotoxin Detected [3, 12]: 165 EU | Percent of Endotoxin Detected [3, 12]: 3.8% | Endotoxin Detected [3, 13]: 70 EU | Percent of Endotoxin Detected [3, 13]: 1.6% | Percent of Endotoxin Detected ([3]; RRW endotoxin, 4340 EU spiked, 0.35 g Calcium Stearate): 2.6% | Endotoxin Detected [3, 14]: 2780 EU | Percent of Endotoxin Detected [3, 14]: 25.0% | Percent of Endotoxin Detected ([3]; SRW endotoxin, 11100 EU spiked, 0.25 g Calcium Stearate): 1.0% | Endotoxin detected on Pad [4]: 1.8 EU | Percent Endotoxin detected as compared to Tube 1 [4]: 20.2% | Endotoxin detected on Pad ([4]; listed as CaSt): 2 EU | Endotoxin Detected ([5]; Rolling, 1 minute): 1,230 EU | Percent (%) Removed ([5]; Rolling, 1 minute): 18.1% | Endotoxin Detected ([5]; Rolling, 20 minutes): 1,050 EU | Percent (%) Removed ([5]; Rolling, 20 minutes): 30.1% | Endotoxin Detected ([5]; Rolling, 40 minutes): 630 EU | Percent (%) Removed ([5]; Rolling, 40 minutes): 58.1% | Endotoxin Detected ([5]; Rolling, 60 minutes): 637 EU | Percent (%) Removed ([5]; Rolling, 60 minutes): 57.6% | Endotoxin Detected ([5]; Rolling, 80 minutes): 451 EU | Percent (%) Removed ([5]; Rolling, 80 minutes): 70% | Endotoxin Detected ([5]; Sonication, 1 minute): 270 EU | Percent (%) Removed ([5]; Sonication, 1 minute): 82% | Endotoxin Detected ([5]; Sonication, 20 minutes): 130 EU | Percent (%) Removed ([5]; Sonication, 20 minutes): 91.3% | Endotoxin Detected ([5]; Sonication, 40 minutes): 87.5 EU | Percent (%) Removed ([5]; Sonication, 40 minutes): 94.2% | Endotoxin Detected ([5]; Sonication, 60 minutes): 56.9 EU | Percent (%) Removed ([5]; Sonication, 60 minutes): 96.2% | Endotoxin Detected ([5]; Sonication, 80 minutes): 16.4 EU | Percent (%) Removed ([5]; Sonication, 80 minutes): 98.9% | Endotoxin Detected ([5]; Vortexing, 1 minute): 451 EU | Percent (%) Removed ([5]; Vortexing, 1 minute): 70% | Endotoxin Detected ([5]; Vortexing, 20 minutes): 301 EU | Percent (%) Removed ([5]; Vortexing, 20 minutes): 80% | Endotoxin Detected ([5]; Vortexing, 40 minutes): 139 EU | Percent (%) Removed ([5]; Vortexing, 40 minutes): 90.7% | Endotoxin Detected ([5]; Vortexing, 60 minutes): 173 EU | Percent (%) Removed ([5]; Vortexing, 60 minutes): 88.5% | Percent (%) Removed ([5]; Vortexing, 80 minutes): 93.1%

Reference: patent US20180077929A1, “METHODS AND SYSTEMS FOR TREATING MEDICAL DEVICES AND FLUIDS” (priority 2016, published 2018)
